The source of these data is PubChem BioAssay (NCI).

Among the test systems are A549 NSCLC; COLO 205 colon; HT29 colon; NCI-H226 lung; NCI-H460 lung; OVCAR-3 ovarian; SF-268 CNS; SK-OV-3 ovarian; U251 CNS; KM12 colon.
Holding throughout (assay): NCI tumour cell line growth inhibition, 48 h

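Dose response: 5 concentrations. Exposure: 48 h. Format: 96-well plates. Endpoint: linear interpolation; highest concentration if not reached. The concentration for 50% growth inhibition is given as GI50. Definition used: TGI = concentration required for complete inhibition of growth.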 Where only a bound is given, the exact number is not on record here.

As for `COC1=CC(=O)C(OC)=C(OC)C1=O`, the GI50 in the assay with A549 NSCLC is 49.5 µM; in the assay with COLO 205 colon, 15.1 µM; with HT29 colon, 22.5 µM; in the assay with NCI-H226 lung it was 18.7 µM; in the assay on NCI-H460 lung, 77 µM; in the assay with OVCAR-3 ovarian, 17.2 µM. The GI50 in the assay on SF-268 CNS is 17.1 µM; in the assay on SK-OV-3 ovarian, 72.9 µM; with U251 CNS, 15.1 µM. The TGI in the assay on A549 NSCLC is more than 100 µM; in the assay with COLO 205 colon, 29 µM; with HT29 colon, 53.8 µM; in the assay on NCI-H226 lung, 39.2 µM; in the assay with NCI-H460 lung, more than 100 µM; in the assay on OVCAR-3 ovarian, 31.1 µM. Also, the TGI was 30.9 µM with SF-268 CNS, more than 100 µM in the assay on SK-OV-3 ovarian and 29.3 µM with U251 CNS.
Consider `CC(=O)O[C@@H]1[C@@H](O)C2=C3[C@]4(C)[C@@H]1C(C)(C)C(=O)C[C@@H]4[C@]3(O)[C@H](OC(C)=O)[C@@]1(C[C@@H]1C)C2=O`, for which the TGI in the assay with A549 NSCLC was determined as 68.4 µM; with COLO 205 colon, 34.2 µM; with KM12 colon it was 30.8 µM; in the assay with NCI-H460 lung it was 40.1 µM; in the assay on OVCAR-3 ovarian, 36.5 µM; in the assay on SF-268 CNS, 81.7 µM. In addition, the TGI in the assay with SK-OV-3 ovarian is 52.6 µM; in the assay on U251 CNS, 40.6 µM.
Regarding `CC(=O)[O-].[Mn+3].[O-]c1ccccc1C=NCCN=Cc1ccccc1[O-]`, the GI50 in the assay on A549 NSCLC was more than 100 µM; in the assay on COLO 205 colon, more than 100 µM; in the assay with HT29 colon, 92.3 µM; in the assay with KM12 colon it was 84.9 µM; in the assay on NCI-H226 lung, more than 100 µM; in the assay with NCI-H460 lung it was 44.4 µM. Further, the GI50 with OVCAR-3 ovarian was 17 µM; with SF-268 CNS, 11.1 µM; with U251 CNS, more than 100 µM. The TGI with A549 NSCLC, in the assay with COLO 205 colon, in the assay with HT29 colon, with KM12 colon, in the assay with NCI-H226 lung and in the assay with NCI-H460 lung was more than 100 µM throughout. The TGI with OVCAR-3 ovarian, in the assay on SF-268 CNS and with U251 CNS was more than 100 µM throughout.
Turning to `O=C(O)CCC/C=C\C[C@H]1C=CC(=O)/C1=C/C[C@@H](O)CCc1cccc(C(F)(F)F)c1`, the GI50 with A549 NSCLC was 3.2 µM; with COLO 205 colon, 2.26 µM; with HT29 colon, 2.69 µM; in the assay on KM12 colon it was 1.89 µM; in the assay with NCI-H460 lung, 2.23 µM; in the assay on OVCAR-3 ovarian, 1.99 µM. Besides, the GI50 was 3.22 µM in the assay with SF-268 CNS, 5.66 µM with SK-OV-3 ovarian and 1.55 µM with U251 CNS. The TGI came to 9.76 µM in the assay with A549 NSCLC; 5.49 µM with COLO 205 colon; 6.41 µM in the assay on HT29 colon; 4.62 µM in the assay on KM12 colon; 4.96 µM in the assay with NCI-H460 lung; 5.61 µM in the assay with OVCAR-3 ovarian. The results for the TGI with SF-268 CNS, in the assay with SK-OV-3 ovarian and in the assay with U251 CNS were 16.5 µM, 18.3 µM and 3.45 µM, respectively.
On to `O=C(/C=N/O)Nc1cc(Cl)c(Cl)cc1Cl`, for which the TGI with A549 NSCLC was more than 100 µM; with COLO 205 colon, 87.4 µM; in the assay on HT29 colon, more than 100 µM; in the assay with KM12 colon it was 84.3 µM; in the assay on NCI-H460 lung, more than 100 µM; in the assay with OVCAR-3 ovarian it was 79.5 µM. The TGI with SF-268 CNS, in the assay with SK-OV-3 ovarian and in the assay on U251 CNS was more than 100 µM each time.
For the compound `O=C(O)c1cc2ccccc2oc1=O`, the TGI in the assay on A549 NSCLC, with COLO 205 colon, in the assay on HT29 colon, in the assay on KM12 colon, in the assay on NCI-H226 lung and in the assay with NCI-H460 lung was more than 100 µM in each case. Further, the TGI in the assay on OVCAR-3 ovarian, in the assay on SF-268 CNS and with U251 CNS was more than 100 µM throughout.
Consider `CC(=O)OC1CC2Oc3ccc(C)cc3C(C)(O2)C1=O` (stereo unspecified), for which the TGI in the assay on A549 NSCLC, in the assay with COLO 205 colon, in the assay on HT29 colon, with KM12 colon, with NCI-H226 lung and in the assay with NCI-H460 lung was more than 100 µM each time. In addition, the TGI in the assay with OVCAR-3 ovarian, in the assay with SK-OV-3 ovarian and with U251 CNS was more than 100 µM in each case.
As for `O=C(Cc1nc2ccccc2s1)C(=O)Nc1cccc(Cl)c1`, the TGI in the assay with A549 NSCLC, with COLO 205 colon, in the assay on HT29 colon, with KM12 colon, in the assay on NCI-H226 lung and with OVCAR-3 ovarian was more than 100 µM in each case. Besides, the TGI in the assay on SF-268 CNS, in the assay on SK-OV-3 ovarian and in the assay with U251 CNS was more than 100 µM each time.
As to `Cc1ccc(C(=O)Nc2ccc(S(=O)(=O)O)c3cc(S(=O)(=O)O)cc(S(=O)(=O)O)c23)cc1NC(=S)Nc1cc(C(=O)Nc2ccc(S(=O)(=O)O)c3cc(S(=O)(=O)O)cc(S(=O)(=O)O)c23)ccc1C`, the TGI with A549 NSCLC, in the assay on HT29 colon, in the assay with NCI-H226 lung, in the assay on NCI-H460 lung, with OVCAR-3 ovarian and with SF-268 CNS was more than 75 µM in each case. The TGI in the assay on U251 CNS is more than 75 µM.
Turning to `COc1ccc(C(=O)C(c2ccc(OC)cc2)C2OC(=O)C(Cl)=C2Cl)cc1` (stereo unspecified), the TGI with A549 NSCLC, in the assay with HT29 colon, in the assay with KM12 colon, with NCI-H226 lung, in the assay with NCI-H460 lung and in the assay with OVCAR-3 ovarian was more than 100 µM throughout. Further, the TGI with SF-268 CNS, in the assay on SK-OV-3 ovarian and in the assay on U251 CNS was more than 100 µM each time.
`COc1ccc(Cc2cc3c(cc2OCC(=O)O)OCO3)cc1`: the TGI with A549 NSCLC, in the assay on COLO 205 colon, in the assay with HT29 colon, in the assay with KM12 colon, in the assay with NCI-H460 lung and in the assay with OVCAR-3 ovarian was more than 100 µM each time. Moreover, the TGI with SF-268 CNS and in the assay with SK-OV-3 ovarian was more than 100 µM each time.
As for `COC(=O)CCC(=O)Nc1cc(Cl)ccc1Cl`, the TGI in the assay on A549 NSCLC, with HT29 colon, in the assay on KM12 colon, in the assay with NCI-H226 lung, in the assay on NCI-H460 lung and in the assay on OVCAR-3 ovarian was more than 100 µM in each case. For the same compound, the TGI in the assay on SF-268 CNS, in the assay on SK-OV-3 ovarian and in the assay on U251 CNS was more than 100 µM throughout.
